In PubChem BioAssay AID270 (DTP/NCI, 2004):
Where “and” joins values, the source holds several entries; their conditions need not be identical. Identical values can stand only once. Inconclusive results are not listed.

System: BDF1 mice, s.c. Lewis lung carcinoma, T/C %
Assay: NCI In Vivo Anticancer Drug Screen. Data for tumor model Lewis Lung Carcinoma (subcutaneous) in B6D2F1 (BDF1) mice
Method in brief: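 The value reflects a ratio in which the treated cohort's survival time or tumour size is compared against mice receiving only vehicle.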

[1] = endpoint: median survival time, dose: 3.12 mg/kg/injection, schedule: Q01DX009 (ip), vehicle: Klucel (hydroxypropylcellulose) (HPC), higher = longer survival
[2] = endpoint: median survival time, dose: 6.25 mg/kg/injection, schedule: Q01DX009 (ip), vehicle: Klucel (hydroxypropylcellulose) (HPC), higher = longer survival
[3] = endpoint: median survival time, dose: 12.5 mg/kg/injection, schedule: Q01DX009 (ip), vehicle: Klucel (hydroxypropylcellulose) (HPC), higher = longer survival
[4] = endpoint: median survival time, dose: 25.0 mg/kg/injection, schedule: Q01DX009 (ip), vehicle: Klucel (hydroxypropylcellulose) (HPC), higher = longer survival
[5] = endpoint: median survival time, dose: 6.25 mg/kg/injection, schedule: Q01DX009 (ip), vehicle: saline with Tween-80, higher = longer survival
[6] = endpoint: median survival time, dose: 12.5 mg/kg/injection, schedule: Q01DX009 (ip), vehicle: saline with Tween-80, higher = longer survival
[7] = endpoint: median survival time, dose: 25.0 mg/kg/injection, schedule: Q01DX009 (ip), vehicle: saline with Tween-80, higher = longer survival
[8] = endpoint: mean tumor weight, dose: 50.0 mg/kg/injection, schedule: Q01DX010 (ip), vehicle: saline, higher = larger tumour
[9] = endpoint: mean tumor weight, dose: 100.0 mg/kg/injection, schedule: Q01DX010 (ip), vehicle: saline, higher = larger tumour
[10] = endpoint: mean tumor weight, dose: 200.0 mg/kg/injection, schedule: Q01DX010 (ip), vehicle: saline, higher = larger tumour
[11] = endpoint: median survival time, dose: 50.0 mg/kg/injection, schedule: Q01DX009 (ip), vehicle: Klucel (hydroxypropylcellulose) (HPC), higher = longer survival
[12] = endpoint: median survival time, dose: 100.0 mg/kg/injection, schedule: Q01DX009 (ip), vehicle: Klucel (hydroxypropylcellulose) (HPC), higher = longer survival

`NC(=O)c1csc(C2OC(CO)C(O)C2O)n1` (stereo not drawn) was tested, and the T/C (endpoint: median survival time, dose: 18.75 mg/kg/injection, schedule: Q01DX009 (ip), vehicle: water, higher = longer survival) was 190 % of control and 235 % of control, the T/C (endpoint: median survival time, dose: 37.5 mg/kg/injection, schedule: Q01DX009 (ip), vehicle: water, higher = longer survival) was 190 % of control and 235 % of control and the T/C (endpoint: median survival time, dose: 75.0 mg/kg/injection, schedule: Q01DX009 (ip), vehicle: water, higher = longer survival) was 190 % of control and 235 % of control. For the same compound, the T/C (endpoint: median survival time, dose: 150.0 mg/kg/injection, schedule: Q01DX009 (ip), vehicle: water, higher = longer survival) was 190 % of control and 235 % of control, the T/C (endpoint: median survival time, dose: 300.0 mg/kg/injection, schedule: Q01DX009 (ip), vehicle: water, higher = longer survival) was 190 % of control and 235 % of control and the T/C (endpoint: median survival time, dose: 600.0 mg/kg/injection, schedule: Q01DX009 (ip), vehicle: water, higher = longer survival) was 190 % of control and 235 % of control.

With `C=C1C(=O)OC2C3OC(C)(CCC(O)C3COC(C)=O)CC(OC(=O)/C(=C/C)COC(C)=O)C12` (stereo not drawn) the T/C [1] was 107 % of control, the T/C (endpoint: median survival time, dose: 3.13 mg/kg/injection, schedule: Q01DX009 (ip), vehicle: Klucel (hydroxypropylcellulose) (HPC), higher = longer survival) was 101 % of control and the T/C [2] was 101 % of control. For the same compound, the T/C [3] was 114 % of control and the T/C [4] was 106 % of control.

`CC1=CC2=C(C=O)C(=O)[C@](C)(O)[C@@H](O)C2=CO1` was tested, and the T/C (endpoint: median survival time, dose: 1.56 mg/kg/injection, schedule: Q01DX009 (ip), vehicle: saline with Tween-80, higher = longer survival) was 115 % of control, the T/C (endpoint: median survival time, dose: 3.13 mg/kg/injection, schedule: Q01DX009 (ip), vehicle: saline with Tween-80, higher = longer survival) was 153 % of control and the T/C [5] was 89 % of control and 120 % of control. The T/C [6] was 109 % of control and the T/C [7] was 106 % of control.

`O=c1cc(-c2ccccc2)oc2ccc(O)cc12` was tested, and the T/C (endpoint: mean tumor weight, dose: 3.13 mg/kg/injection, schedule: Q01DX011 (ip), vehicle: saline, higher = larger tumour) was 109 % of control, the T/C (endpoint: mean tumor weight, dose: 6.25 mg/kg/injection, schedule: Q01DX011 (ip), vehicle: saline, higher = larger tumour) was 68 % of control and the T/C (endpoint: mean tumor weight, dose: 25.0 mg/kg/injection, schedule: Q01DX010 (ip), vehicle: saline, higher = larger tumour) was 77 % of control. The T/C (endpoint: mean tumor weight, dose: 25.0 mg/kg/injection, schedule: Q01DX011 (ip), vehicle: saline, higher = larger tumour) was 119 % of control, the T/C [8] was 101 % of control and the T/C [9] was 86 % of control. For the same compound, the T/C [10] was 97 % of control.

With `COc1ccc(NC(=O)N(CCCl)N=O)cc1OC` the T/C (endpoint: median survival time, dose: 1.56 mg/kg/injection, schedule: Q01DX009 (ip), vehicle: Klucel (hydroxypropylcellulose) (HPC), higher = longer survival) was 97 % of control, the T/C [1] was 100 % of control and the T/C [2] was 106 % of control. For the same compound, the T/C [3] was 101 % of control and the T/C [4] was 107 % of control.

With `O=S(=O)(O)O` the T/C [2] was 94 % of control and 97 % of control and 121 % of control, the T/C [3] was 88 % of control and 91 % of control and 94 % of control and the T/C [4] was 94 % of control and 102 % of control and 107 % of control. The T/C [11] was 70 % of control and 94 % of control, the T/C [12] was 35 % of control and 42 % of control and the T/C (endpoint: median survival time, dose: 200.0 mg/kg/injection, schedule: Q01DX009 (ip), vehicle: Klucel (hydroxypropylcellulose) (HPC), higher = longer survival) was 30 % of control and 32 % of control.

With `COc1ccc(-c2cc(=O)c3ccccc3o2)c(OC)c1OC` the T/C [8] was 95 % of control, the T/C [9] was 101 % of control and the T/C [10] was 83 % of control. The T/C (endpoint: mean tumor weight, dose: 400.0 mg/kg/injection, schedule: Q01DX010 (ip), vehicle: saline, higher = larger tumour) was 99 % of control.

In the case of `NC(=S)N/N=C\c1nccc2c(N)cccc12`, the T/C [5] is reported as 107 % of control and 110 % of control, the T/C [6] is reported as 94 % of control and 113 % of control and the T/C [7] is reported as 112 % of control and 117 % of control. The T/C (endpoint: median survival time, dose: 50.0 mg/kg/injection, schedule: Q01DX009 (ip), vehicle: saline with Tween-80, higher = longer survival) was 105 % of control and the T/C (endpoint: median survival time, dose: 75.0 mg/kg/injection, schedule: Q01DX009 (ip), vehicle: saline with Tween-80, higher = longer survival) was 110 % of control and 124 % of control.

`CN(C)C=Nc1ccc2c3c(cccc13)CC2` was tested, and the T/C [2] was 108 % of control, the T/C [3] was 107 % of control and the T/C [4] was 122 % of control.

In the case of `C=C1C(=O)OC2CC(C)C3(O)CCC(C)(CC(OC(=O)C(C)C)C12)O3` (stereo not drawn), the T/C [11] is reported as 92 % of control and the T/C [12] is reported as 106 % of control.
